Laboratory results taken from US7138361B2, “Herbicidal heterocycles” (E. I. du Pont de Nemours and Company, priority 2000, dated 2006).

How the values were obtained:
Assay type in all cases: in vivo
Nightshade = assay: Test C preemergence
Sunflower [1] = assay: Test C preemergence; conditions: Rate 62 g/ha; scale 0 to 100, 0 no effect, 100 complete control
[2] = test system: Surinam grass (Brachiaria decumbens); assay: Test C preemergence
Summary of the method: (§1)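 Each compound was dissolved in a non-phytotoxic solvent system containing a surfactant and sprayed either on freshly planted seeds (preemergence) or on young plants, 2 to 18 cm high (postemergence). Ratings after 12 to 14 greenhouse days ran from 0, no effect, to 100, complete control.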

[3] = test system: bermudagrass (Cynodon dactylon); assay: Test C preemergence
Summary of the method: as §1

[4] = test system: cocklebur (Xanthium strumarium); assay: Test C preemergence
Summary of the method: as §1

corn (Zea mays) = assay: Test C preemergence
Summary of the method: as §1

[5] = test system: crabgrass (Digitaria sanguinalis); assay: Test C preemergence
Summary of the method: as §1

[6] = test system: giant foxtail (Setaria faberii); assay: Test C preemergence
Summary of the method: as §1

[7] = test system: goosegrass (Eleusine indica); assay: Test C preemergence
Summary of the method: as §1

[8] = test system: johnsongrass (Sorghum halepense); assay: Test C preemergence
Summary of the method: as §1

kochia (Kochia scoparia) = assay: Test C preemergence
Summary of the method: as §1

[9] = test system: lambsquarters (Chenopodium album); assay: Test C preemergence
Summary of the method: as §1

[10] = test system: morningglory (Ipomoea hederacea); assay: Test C preemergence
Summary of the method: as §1

[11] = test system: pigweed (Amaranthus retroflexus); assay: Test C preemergence
Summary of the method: as §1

soybean (Glycine max) = assay: Test C preemergence
Summary of the method: as §1

[12] = test system: velvetleaf (Abutilon theophrasti); assay: Test C preemergence
Summary of the method: as §1

[13] = test system: woolly cupgrass (Eriochloa villosa); assay: Test C preemergence
Summary of the method: as §1

[14] = test system: yellow nutsedge (Cyperus esculentus); assay: Test C preemergence
Summary of the method: as §1

[15] = test system: barnyardgrass (Echinochloa crus-galli); assay: Test C flooded paddy test; conditions: for Barnyardgrass plant response rating: Flooded Paddy, scale 0 to 100, 0 no effect, 100 complete control; for Plant response rating, Barnyardgrass: flooded paddy test, scale 0 to 100 (0 no effect, 100 complete control)
Summary of the method: (§2)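 Flooded paddy, 2-leaf stage at treatment. Readout: visual % control vs untreated, 0–100, at 12–14 d in greenhouse.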

[16] = test system: duck salad (Heteranthera limosa); assay: Test C flooded paddy test; conditions: for Ducksalad plant response rating: Flooded Paddy, scale 0 to 100, 0 no effect, 100 complete control; for Plant response rating, Ducksalad: flooded paddy test, scale 0 to 100 (0 no effect, 100 complete control)
Summary of the method: as §2

[17] = test system: smallflower flatsedge (Cyperus difformis); assay: Test C flooded paddy test; conditions: for Flatsedge plant response rating: Flooded Paddy, scale 0 to 100, 0 no effect, 100 complete control; for Plant response rating, Flatsedge: flooded paddy test, scale 0 to 100 (0 no effect, 100 complete control)
Summary of the method: as §2

Sunflower [18] = assay: Test C preemergence; conditions: Rate 250 g/ha, visual evaluation after 12 to 14 days
[19] = Rate 62 g/ha, scale 0 to 100, 0 no effect, 100 complete control
[20] = preemergence, Rate 31 g/ha, scale 0 to 100
[21] = preemergence, Rate 250 g/ha, visual evaluation after 12 to 14 days
[22] = preemergence, Rate 125 g/ha, scale 0 to 100, 0 no effect, 100 complete control

CC(C)c1ccn(C2OCN(c3cccc(C(F)(F)F)c3)C2=O)n1 (stereo not drawn) [Compound 27]
Plant response rating, Nightshade (Nightshade; Rate 31 g/ha, scale 0 to 100): 0
Plant response rating, Nightshade (Nightshade; [19]): 0
Plant response rating, Nightshade (Nightshade; Rate 125 g/ha, scale 0 to 100, 0 no effect, 100 complete control): 0
Plant response rating, Sunflower (Sunflower [1]): 20
Plant response rating, Surinam grass [2, 19]: 50
Plant response rating, Surinam grass [2, 20]: 0
Plant response rating (0 to 100), Surinam grass [2, 21]: 80
Plant response rating, Surinam grass [2, 22]: 50
Plant response rating, Bermudagrass [3, 19]: 90
Plant response rating, Bermudagrass [3, 20]: 30
Plant response rating (0 to 100 where 0 is no effect and 100 is complete control), Bermudagrass [3, 21]: 100
Plant response rating, Bermudagrass [3, 22]: 100
Plant response rating, Cocklebur [4, 19]: 0
Plant response rating, Cocklebur [4, 20]: 0
Plant response rating (0 to 100), Cocklebur [4, 21]: 0
Plant response rating, Cocklebur [4, 22]: 0
Plant response rating, Corn (corn (Zea mays); [19]): 20
Plant response rating, Corn (corn (Zea mays); [20]): 0
Plant response rating (0 to 100), Corn (corn (Zea mays); [21]): 30
Plant response rating, Corn (corn (Zea mays); [22]): 20
Plant response rating, Crabgrass [5, 19]: 100
Plant response rating, Crabgrass [5, 20]: 90
Plant response rating (0 to 100), Crabgrass [5, 21]: 100
Plant response rating, Crabgrass [5, 22]: 100
Plant response rating, Foxtail, Giant [6, 19]: 70
Plant response rating, Foxtail, Giant [6, 20]: 0
Plant response rating (0 to 100), Foxtail, Giant [6, 21]: 0
Plant response rating, Foxtail, Giant [6, 22]: 100
Plant response rating, Goosegrass [7, 19]: 90
Plant response rating, Goosegrass [7, 20]: 40
Plant response rating (0 to 100), Goosegrass [7, 21]: 100
Plant response rating, Goosegrass [7, 22]: 100
Plant response rating, Johnsongrass [8, 19]: 20
Plant response rating, Johnsongrass [8, 20]: 0
Plant response rating (0 to 100), Johnsongrass [8, 21]: 50
Plant response rating, Johnsongrass [8, 22]: 50
Plant response rating, Kochia (kochia (Kochia scoparia); [19]): 100
Plant response rating, Kochia (kochia (Kochia scoparia); [20]): 0
Plant response rating (0 to 100), Kochia (kochia (Kochia scoparia); [21]): 100
Plant response rating, Kochia (kochia (Kochia scoparia); [22]): 100
Plant response rating, Lambsquarters [9, 19]: 100
Plant response rating, Lambsquarters [9, 20]: 100
Plant response rating (0 to 100), Lambsquarters [9, 21]: 100
Plant response rating, Lambsquarters [9, 22]: 100
Plant response rating, Morningglory [10, 19]: 20
Plant response rating, Morningglory [10, 20]: 0
Plant response rating (0 to 100), Morningglory [10, 21]: 30
Plant response rating, Morningglory [10, 22]: 20
Plant response rating, Pigweed [11, 19]: 0
Plant response rating, Pigweed [11, 20]: 100
Plant response rating (0 to 100), Pigweed [11, 21]: 100
Plant response rating, Pigweed [11, 22]: 100
Plant response rating, Soybean (soybean (Glycine max); [19]): 30
Plant response rating, Soybean (soybean (Glycine max); [20]): 0
Plant response rating (0 to 100), Soybean (soybean (Glycine max); [21]): 50
Plant response rating, Soybean (soybean (Glycine max); [22]): 40
Plant response rating, Velvetleaf [12, 19]: 0
Plant response rating, Velvetleaf [12, 20]: 0
Plant response rating (0 to 100), Velvetleaf [12, 21]: 0
Plant response rating, Velvetleaf [12, 22]: 0
Plant response rating, Cupgrass, Woolly [13, 19]: 50
Plant response rating, Cupgrass, Woolly [13, 20]: 50
Plant response rating (0 to 100), Cupgrass, Woolly [13, 21]: 100
Plant response rating, Cupgrass, Woolly [13, 22]: 80
Plant response rating, Nutsedge [14, 19]: 60
Plant response rating, Nutsedge [14, 20]: 30
Plant response rating (0 to 100), Nutsedge [14, 21]: 80
Plant response rating, Nutsedge [14, 22]: 60
Barnyardgrass plant response rating ([15]; Rate 250 g/ha): 60
Barnyardgrass plant response rating ([15]; Rate 500 g/ha): 70
Plant response rating, Barnyardgrass ([15]; Rate 62 g/ha): 20
Plant response rating, Barnyardgrass ([15]; Rate 125 g/ha): 60
Ducksalad plant response rating ([16]; Rate 250 g/ha): 0
Ducksalad plant response rating ([16]; Rate 500 g/ha): 90
Plant response rating, Ducksalad ([16]; Rate 62 g/ha): 0
Plant response rating, Ducksalad ([16]; Rate 125 g/ha): 0
Flatsedge plant response rating ([17]; Rate 250 g/ha): 100
Flatsedge plant response rating ([17]; Rate 500 g/ha): 100
Plant response rating, Flatsedge ([17]; Rate 62 g/ha): 90
Plant response rating, Flatsedge ([17]; Rate 125 g/ha): 90
Plant response rating (0 to 100), Sunflower (Sunflower [18]): 20
